Reference: the Kinase Knowledgebase extract (Sharma et al. 2016)

Target: CDK2 (human) (UniProt P24941)
Assay: Enzyme Assay

SMILES	IC50 [µM]
CC(C)c1cnn2c(NCc3ccccc3-n3cccn3)nc(S[C@@H]3CCCNC3)nc12	0.05 to 0.5
CC(C)c1cnn2c(NCc3ccccc3-n3cncn3)nc(N[C@@H]3CCCNC3)nc12	≤ 0.05
CC(C)c1cnn2c(NCc3ccccc3Cl)nc(OC3CCN(C)CC3)nc12	0.05 to 0.5
CC(C)c1cnn2c(NCc3ccccc3-n3cccn3)nc(NC3CCCNC3)nc12 (stereo unspecified)	0.05 to 0.5
CC(C)c1cnn2c(NCc3ccccc3-n3cccn3)nc(OC3C[C@H]4CNC[C@@H]34)nc12 (stereo partly specified)	0.05 to 0.5
CNC1CCN(c2nc(NCc3ccccc3-n3cccn3)n3ncc(C(C)C)c3n2)CC1	0.05 to 0.5
CC(C)c1cnn2c(NCc3ccccc3S(=O)(=O)N3CCN(C)CC3)nc(O[C@@H]3CCCNC3)nc12	0.05 to 0.5
CC(C)c1cnn2c(NCc3ccccc3-n3cccn3)nc(NC3CCNC3)nc12 (stereo unspecified)	0.05 to 0.5
COc1ccccc1CNc1nc(OC2CCN(C)CC2)nc2c(C(C)C)cnn12	0.05 to 0.5
CC(C)c1cnn2c(NCc3ccccc3-n3cccn3)nc(O[C@@H]3CCNC3)nc12	≤ 0.05
CC(C)c1cnn2c(NCc3c(F)cccc3-n3cccn3)nc(O[C@@H]3CCCNC3)nc12	0.05 to 0.5
CC(C)c1cnn2c(NCc3ccccc3-c3cccs3)nc(OC3CCNCC3)nc12	0.05 to 0.5
CC(C)c1cnn2c(NCc3ccccc3-n3cncn3)nc(OC3CCNCC3)nc12	0.05 to 0.5
CC(C)c1cnn2c(NCc3ccccc3-n3cccn3)nc([S+]([O-])C3CCNCC3)nc12 (stereo unspecified)	0.05 to 0.5
CC(C)c1cnn2c(NCc3ccccc3-n3cncn3)nc([S+]([O-])C3CCNCC3)nc12 (stereo unspecified)	0.05 to 0.5
CC(C)c1cnn2c(NCc3ccccc3-n3cccn3)nc(OC3C=CCNC3)nc12 (stereo unspecified)	0.05 to 0.5
CC(C)c1cnn2c(NCc3ccccc3-n3cccn3)nc(OC3CCNCC3)nc12	0.05 to 0.5
CC(C)c1cnn2c(NCc3ccccc3-n3cncn3)nc(OC3CCN(C)CC3)nc12	0.05 to 0.5
CC(C)c1cnn2c(NCc3cccc4c3OCCCO4)nc(O[C@@H]3CCCNC3)nc12	0.05 to 0.5
CC(C)c1cnn2c(NCc3ccccc3C(F)(F)F)nc(OC3CCN(C)CC3)nc12	≤ 0.05
CC(C)c1cnn2c(NCc3ccccc3OC(F)F)nc(OC3CCN(C)CC3)nc12	0.05 to 0.5
CC(C)c1cnn2c(NCc3ccccc3-c3cccs3)nc([S+]([O-])C3CCNCC3)nc12 (stereo unspecified)	0.05 to 0.5
CC(C)c1cnn2c(NCc3ccccc3-n3cccn3)nc(N3CCC(N(C)C)CC3)nc12	0.05 to 0.5
CC(C)c1cnn2c(NCc3ccccc3-c3cccs3)nc(OC3CCN(C)CC3)nc12	0.05 to 0.5

Further lines, results first:

IC50 [µM]	SMILES
0.05 to 0.5	CC(C)c1cnn2c(NCc3ccccc3S(C)(=O)=O)nc(O[C@@H]3CCCNC3)nc12
≤ 0.05	CC(C)c1cnn2c(NCc3cccc4c3cnn4C)nc(O[C@@H]3CCCNC3)nc12
0.05 to 0.5	CNS(=O)(=O)c1ccccc1CNc1nc(O[C@@H]2CCCNC2)nc2c(C(C)C)cnn12
0.05 to 0.5	CC(C)c1cnn2c(NCc3cccc(Cl)c3Cl)nc(O[C@@H]3CCCNC3)nc12
≤ 0.05	CC(C)c1cnn2c(NCc3cccc4[nH]ncc34)nc(O[C@@H]3CCCNC3)nc12
0.05 to 0.5	CC(C)c1cnn2c(NCc3ccccc3-c3cccs3)nc(O[C@@H]3CCNC3)nc12
0.05 to 0.5	CC(C)c1cnn2c(NCc3ccccc3-c3ccccn3)nc(O[C@@H]3CCCNC3)nc12
0.05 to 0.5	CC(C)c1cnn2c(NCc3ccccc3-n3ccnc3)nc(O[C@@H]3CCNC3)nc12
0.05 to 0.5	CC(C)c1cnn2c(NCc3cccc4cccnc34)nc(O[C@@H]3CCCNC3)nc12
≤ 0.05	CC(C)c1cnn2c(NCc3ccc(F)cc3-n3cccn3)nc(O[C@@H]3CCCNC3)nc12
0.05 to 0.5	CC(C)c1cnn2c(NCc3ccccc3N3CCCC3=O)nc(O[C@@H]3CCCNC3)nc12
0.05 to 0.5	CC(C)c1cnn2c(NCc3ccccc3[S+](C)[O-])nc(O[C@@H]3CCCNC3)nc12 (stereo partly specified)
0.05 to 0.5	CC(C)c1cnn2c(NCc3ccccc3OS(=O)C(C)(C)C)nc(O[C@@H]3CCCNC3)nc12 (stereo partly specified)
≤ 0.05	CC(C)c1cnn2c(NCc3ccccc3-n3cncn3)nc(O[C@@H]3CCNC3)nc12
0.05 to 0.5	CC(C)c1cnn2c(NCc3cccc4ccncc34)nc(O[C@@H]3CCCNC3)nc12
≤ 0.05	CC(C)c1cnn2c(NCc3cc(F)ccc3-n3cccn3)nc(O[C@@H]3CCCNC3)nc12

IC50 [µM]	SMILES
0.05 to 0.5	CC(C)c1cnn2c(NCc3ccccc3-c3nnnn3C)nc(O[C@@H]3CCCNC3)nc12
0.05 to 0.5	CC(C)c1cnn2c(NCc3ccccc3-n3cc(Cl)cn3)nc(O[C@@H]3CCCNC3)nc12
0.05 to 0.5	CC(C)c1cnn2c(NCc3ccccc3C(N)=O)nc(O[C@@H]3CCCNC3)nc12
0.05 to 0.5	CC(C)c1cnn2c(NCc3cccc4cc[n+]([O-])cc34)nc(O[C@@H]3CCCNC3)nc12
0.05 to 0.5	CC(C)c1cnn2c(NCc3ccccc3S(=O)(=O)N3CCCC3)nc(O[C@@H]3CCCNC3)nc12
0.05 to 0.5	CC(C)Oc1ccccc1CNc1nc(O[C@@H]2CCCNC2)nc2c(C(C)C)cnn12
≤ 0.05	CC(C)c1cnn2c(NCc3ccccc3-n3cccn3)nc(O[C@@H]3CCCNC3)nc12
≤ 0.05	CC(C)c1cnn2c(NCc3ccccc3-c3nnn(C)n3)nc(O[C@@H]3CCCNC3)nc12
≤ 0.05	CC(C)c1cnn2c(NCc3cccc(F)c3-n3cccn3)nc(O[C@@H]3CCCNC3)nc12
≤ 0.05	CC(C)c1cnn2c(NCc3ccccc3-c3cccs3)nc(O[C@@H]3CCCNC3)nc12
0.05 to 0.5	CSc1ccccc1CNc1nc(O[C@@H]2CCCNC2)nc2c(C(C)C)cnn12
0.05 to 0.5	CC(C)c1cnn2c(NCc3ccccc3Br)nc(O[C@@H]3CCCNC3)nc12
0.05 to 0.5	CC(C)c1cnn2c(NCc3ccccc3-n3ccnc3)nc(O[C@@H]3CCCNC3)nc12
0.05 to 0.5	CC(C)c1cnn2c(NCc3ccccc3OS(C)(=O)=O)nc(O[C@@H]3CCCNC3)nc12
0.05 to 0.5	CC(C)c1cnn2c(NCc3ccccc3S(=O)(=O)N(C)C)nc(O[C@@H]3CCCNC3)nc12
0.05 to 0.5	CNC(=O)c1ccccc1CNc1nc(O[C@@H]2CCCNC2)nc2c(C(C)C)cnn12
